Test results from patent US9326973B2, “Hepatitis C virus inhibitors” (priority 2012, dated 2016).

Columns and labels:
Format in all cases: cell-based, HCV genotype 1a
[1] = system: HCV replicon, genotype 1a L31V variant with leucine 31 changed to valine in the NS5A protein; details: test compound titrated in combination with a fixed 200 nM compound N47; genotype 1a L31V replicon
[2] = system: HCV replicon, genotype 1a Y93H variant with tyrosine 93 changed to histidine in the NS5A protein; details: test compound titrated in combination with a fixed 200 nM compound N47; genotype 1a Y93H replicon
Method: Combinations can be examined for synergistic activity using a variety of putative NS5A-targeting compounds and a variety of test compounds. […] The test compound can be chosen from compounds exemplified below, which were prepared by methods known in the art, or from others disclosed in the literature.
Similarly, BMS-790052 can be tested singly and in combination with a fixed amount of compound N47 in the HCV replicon cell based assay consisting of the genotype 1a Y93H variant with tyrosine 93 changed to histidine in the NS5A protein.

[3] = system: HCV replicon, genotype-1a variant with glutamine 30 changed to glutamate in the NS5A protein; assay: microbe, parasite or virus in culture; details: HCV replicon genotype 1a Q30E (Q→E) variant; test compound titrated with an NS5A-targeting compound (BMS-790052 fixed at 200 nM); ranking of synergist activity
Procedure, shortened: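 Synergy was assessed by combining several fixed amounts of an NS5A-targeting compound with a titration of the second compound of interest.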

COC(=O)N[C@H](C(=O)N1C(c2nc3ccc4cc(C#Cc5ccc6c(ccc7nc([C@@H]8CC9CC9N8C(=O)[C@@H](NC(=O)OC)C(C)C)[nH]c76)c5)ccc4c3[nH]2)C[C@H]2C[C@H]21)C(C)C (stereo partly shown)
Fold-Synergistic G-1a (L31V) [1]: <10 Fold
Fold-Synergistic G-1a (Y93H) [2]: >100 Fold

COC(=O)N[C@H](C(=O)N1[C@@H]2C[C@@H]2C[C@H]1c1ncc(-c2ccc(C3C[C@H]3c3ccc(-c4cnc([C@@H]5C[C@H]6C[C@H]6N5C(=O)[C@@H](NC(=O)OC)C(C)C)[nH]4)cc3)cc2)[nH]1)C(C)C (stereo partly shown)
Fold-Synergistic G-1a (L31V) [1]: >10 Fold
Fold-Synergistic G-1a (Y93H) [2]: >10 Fold

CN(C)[C@@H](C(=O)N1CCCC[C@H]1c1ncc(-c2ccc(-c3ccc(-c4cnc([C@@H]5CCCCN5C(=O)[C@@H](c5ccccc5)N(C)C)[nH]4)cc3)cc2)[nH]1)c1ccccc1
Fold-Synergistic G-1a (Y93H) [2]: <10 Fold

CN(C)[C@@H](C(=O)N1CCCC1c1cnc(-c2ccc3nc([C@@H]4CCCN4C(=O)[C@@H](c4ccccc4)N(C)C)[nH]c3c2)o1)c1ccccc1 (stereo partly shown)
Fold-Synergistic G-1a (L31V) [1]: <10 Fold
Fold-Synergistic G-1a (Y93H) [2]: <10 Fold

COC(=O)N[C@H](C(=O)N1CCC[C@H]1C1=C(c2ccc(C#Cc3ccc4[nH]c([C@@H]5CCCN5C(=O)[C@@H](NC(=O)OC)C(C)C)nc4c3)cc2)NCN1)C(C)C
Fold-Synergistic G-1a (L31V) [1]: <10 Fold
Fold-Synergistic G-1a (Y93H) [2]: >10 Fold

COC(=O)N[C@@H](C)C(=O)N1[C@@H]2CC[C@@H](C2)[C@H]1c1nc(-c2ccc(-c3ccc(C4=CNC([C@@H]5[C@H]6CC[C@H](C6)N5C(=O)[C@H](C)NC(=O)OC)N4)cc3)cc2)c[nH]1 (stereo partly shown)
Fold-Synergistic G-1a (L31V) [1]: >10 Fold
Fold-Synergistic G-1a (Y93H) [2]: <10 Fold

O=C(Nc1ccc(/C=C/c2ccc(NC(=O)[C@@H]3CCCN3C(=O)Cc3cccnc3)nc2)cn1)C1CCCN1C(=O)Cc1cccnc1 (stereo partly shown)
Fold-Synergistic G-1a (L31V) [1]: <10 Fold
Fold-Synergistic G-1a (Y93H) [2]: <10 Fold

COC(=O)N[C@@H](C(=O)N1CCC[C@H]1c1ncc(-c2ccc(-c3ccc(-c4cnc([C@@H]5CCCN5C(=O)[C@H](NC(=O)OC)c5ccccc5)[nH]4)cc3)cc2)[nH]1)c1ccccc1
Fold-Synergistic G-1a (L31V) [1]: <10 Fold

O=C(Nc1ccc(/C=C/c2ccc(NC(=O)[C@@H]3CCCN3C(=O)Cc3ccccc3)cc2)cc1)C1CCCN1C(=O)Cc1ccccc1 (stereo partly shown)
Fold-Synergistic G-1a (L31V) [1]: <10 Fold
Fold-Synergistic G-1a (Y93H) [2]: <10 Fold

COC(=O)N[C@@H](C(=O)N1CCCC1c1ncc(C#CC#Cc2cnc([C@@H]3CCCN3C(=O)[C@H](NC(=O)OC)c3ccccc3)[nH]2)[nH]1)c1ccccc1 (stereo partly shown)
Fold-Synergistic G-1a (L31V) [1]: <10 Fold
Fold-Synergistic G-1a (Y93H) [2]: <10 Fold

COC(=O)N[C@H](C(=O)N1[C@@H]2C[C@@H]2C[C@H]1C(=O)Nc1ccc(C23CC4C5CC6(c7ccc(NC(=O)[C@@H]8C[C@H]9C[C@H]9N8C(=O)[C@@H](NC(=O)OC)C(C)C)cc7)CC4C(C2)C(C6)C5C3)cc1)C(C)C
Fold-Synergistic G-1a (L31V) [1]: <10 Fold
Fold-Synergistic G-1a (Y93H) [2]: <10 Fold

COC(=O)N[C@H](C(=O)N1CCC[C@H]1c1cn(-c2ccc(-c3ccc(-n4cnc([C@@H]5CCCN5C(=O)[C@@H](NC(=O)OC)C(C)C)c4)cc3)cc2)cn1)C(C)C
Fold-Synergistic G-1a (L31V) [1]: >10 Fold
Fold-Synergistic G-1a (Y93H) [2]: >10 Fold

COC(=O)NC(C(=O)N1[C@@H]2C[C@@H]2C[C@H]1c1ncc(-c2cccc(-c3ccc4cc(-c5cnc([C@H]6C[C@@H]7C[C@@H]7N6C(=O)[C@@H](NC(=O)OC)C(C)C)[nH]5)ccc4c3)c2)[nH]1)C(C)C (stereo partly shown)
Fold-Synergistic G-1a (L31V) [1]: <10 Fold
Fold-Synergistic G-1a (Y93H) [2]: >10 Fold

COC(=O)N[C@H](C(=O)N1CCC[C@H]1c1nc2cc(C#Cc3ccc4[nH]c([C@@H]5CCCN5C(=O)[C@@H](NC(=O)OC)C(C)C)nc4c3)ccc2[nH]1)C(C)C
Fold-Synergistic G-1a (Y93H) [2]: <10 Fold

COC(=O)NC(C(=O)N1[C@@H]2C[C@@H]2C[C@H]1c1nc2ccc(-c3ccc4cc(-c5ccc6nc([C@@H]7C[C@H]8C[C@H]8N7C(=O)[C@@H](NC(=O)OC)C(C)C)[nH]c6c5)ccc4c3)cc2[nH]1)C(C)C (stereo partly shown)
Fold-Synergistic G-1a (L31V) [1]: >10 Fold
Fold-Synergistic G-1a (Y93H) [2]: >10 Fold

COC(=O)N[C@H](C(=O)N1C[C@H](C)C[C@H]1c1ncc(-c2ccc(-c3ccc(-c4cnc([C@@H]5C[C@@H](C)CN5C(=O)[C@@H](NC(=O)OC)C(C)C)[nH]4)cc3)cc2)[nH]1)C(C)C
Fold-Synergistic G-1a (L31V) [1]: >100 Fold
Fold-Synergistic G-1a (Y93H) [2]: >100 Fold

COC(=O)NC(C(=O)N1[C@@H](C)CC[C@H]1C1=NCC(c2ccc(-c3cnc(-c4cnc([C@@H]5CC[C@H](C)N5C(=O)[C@@H](NC(=O)OC)[C@H]5C[C@@H](C)O[C@@H](C)C5)[nH]4)c4cccn34)cc2)N1)[C@H]1C[C@@H](C)O[C@@H](C)C1 (stereo partly shown)
Fold-Synergistic G-1a (L31V) [1]: >10 Fold
Fold-Synergistic G-1a (Y93H) [2]: >100 Fold

CC(C)(C)[C@H](NC(=O)C(F)(F)C1(O)CCC1)c1nc(-c2ccc(-c3ccc(-c4c[nH]c([C@@H](NC(=O)C(F)(F)C5(O)CCC5)C(C)(C)C)n4)cc3)cc2)c[nH]1 [Compound P-165]
Fold-Synergistic 1a (Q30E) [3]: >100 fold

CC(C)(C)[C@H](NC(=O)C(C)(O)C(F)(F)F)c1nc(-c2ccc(-c3ccc(-c4c[nH]c([C@@H](NC(=O)C(C)(O)C(F)(F)F)C(C)(C)C)n4)cc3)cc2)c[nH]1 (stereo partly drawn) [Compound L-66a]
Fold-Synergistic 1a (Q30E) [3]: >100 fold

CC(C)(C)[C@H](Nc1nc2ccccc2s1)c1nc(-c2ccc(-c3ccc(-c4c[nH]c([C@@H](Nc5nc6ccccc6s5)C(C)(C)C)n4)cc3)cc2)c[nH]1 [Compound W-183]
Fold-Synergistic 1a (Q30E) [3]: >10 fold

CC(CF)(CF)OC(=O)NC1(C(=O)N[C@H](c2nc(-c3ccc(-c4ccc(-c5c[nH]c([C@@H](NC(=O)C6(NC(=O)OC(C)(CF)CF)CC6)C(C)(C)C)n5)cc4)cc3)c[nH]2)C(C)(C)C)CC1 [Compound L-27]
Fold-Synergistic 1a (Q30E) [3]: >100 fold

CC1([C@H](NC(=O)[C@@]2(C)CCC(F)(F)CO2)c2nc(-c3ccc(-c4ccc(-c5c[nH]c([C@@H](NC(=O)[C@@]6(C)CCC(F)(F)CO6)C6(C)CC6)n5)cc4)cc3)c[nH]2)CC1 [Compound Y-81]
Fold-Synergistic 1a (Q30E) [3]: >100 fold

C[C@H]1C[C@H](C)OC(C)(C(=O)N[C@H](c2nc(-c3ccc(-c4ccc(-c5c[nH]c([C@@H](NC(=O)C6(C)O[C@@H](C)C[C@H](C)O6)C(C)(C)C)n5)cc4)cc3)c[nH]2)C(C)(C)C)O1 (stereo partly drawn) [Compound L-85]
Fold-Synergistic 1a (Q30E) [3]: >100 fold
